These results are taken from ChEMBL document CHEMBL1201862, “PubChem BioAssay data set” (2004).

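Assay format: 96-well plates, 48-hour exposure. GI50 is the concentration that inhibits growth by half.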 The source made the active and inactive calls. Rule as the data show it: active = GI50 up to about 1.1 µM and inactive = higher.

Among the test systems are SW-620; MOLT-4; M14; RPMI-8226; M19-MEL; SNB-19; RXF 393; 786-0; UO-31; TK-10; NCI-H522; NCI-H23; KM12; U-251; CAKI-1; Hs-578T; MDA-MB-435; NCI/ADR-RES; MDA-N; IGROV-1.
Holding throughout (assay): DTP human tumour cell line panel, 48 h

Regarding `Cc1ccc(NC(=O)CSc2nnc(Cc3ccccc3)o2)c(C)c1`, the GI50 in the assay with SW-620, with MOLT-4, in the assay with M14, in the assay on RPMI-8226, with M19-MEL and with SNB-19 was > 100 µM (inactive) each time. The GI50 in the assay on RXF 393, with 786-0, in the assay with UO-31, in the assay on TK-10, in the assay on NCI-H522 and in the assay with NCI-H23 was > 100 µM (inactive) throughout. Moreover, the GI50 in the assay with KM12 and with U-251 was > 100 µM (inactive) each time.

Turning to `CCOC(=O)C(Cc1ccc(OC(=O)c2ccc(OC)cc2OC)cc1)NC(=O)C(F)(F)F` (centres undefined), the GI50 is > 100 µM (inactive) in the assay with SW-620; 29 µM (inactive) in the assay on CAKI-1; 16.8 µM (inactive) in the assay with MOLT-4; 17.5 µM (inactive) with M14; 20.3 µM (inactive) in the assay with RPMI-8226; 27.5 µM (inactive) in the assay with Hs-578T. The GI50 was 33.6 µM (inactive) in the assay with SNB-19; 18.7 µM (inactive) in the assay on MDA-MB-435; 19.6 µM (inactive) with RXF 393; 31.9 µM (inactive) in the assay with 786-0; 18 µM (inactive) with UO-31; 22.2 µM (inactive) with TK-10. Also, the GI50 in the assay with NCI/ADR-RES was 32 µM (inactive); in the assay on MDA-N it was 20 µM (inactive); in the assay on NCI-H522, 17.9 µM (inactive); in the assay with NCI-H23, 22.1 µM (inactive); in the assay on KM12, 29.4 µM (inactive); in the assay with U-251, 32.1 µM (inactive). Also, the GI50 in the assay on IGROV-1 is 19.2 µM (inactive).

For `COC(=O)CCCc1c(-c2[nH]c3ccccc3c2CCCC(=O)OC)[nH]c2ccccc12`, the GI50 with SW-620, in the assay on CAKI-1, in the assay on MOLT-4, in the assay with M14, with RPMI-8226 and in the assay with Hs-578T was > 100 µM (inactive) in each case. Moreover, the GI50 in the assay on SNB-19, in the assay on MDA-MB-435, in the assay with RXF 393, in the assay with 786-0, with UO-31 and with TK-10 was > 100 µM (inactive) in each case. In addition, the GI50 in the assay on NCI/ADR-RES, in the assay on MDA-N, in the assay with NCI-H522, in the assay with NCI-H23, in the assay with KM12 and in the assay with U-251 was > 100 µM (inactive) in each case. Also, the GI50 with IGROV-1 is > 100 µM (inactive).

As to `CC1=NN(c2ccc(S(=O)(=O)O)cc2)C2(C1)SCC(=O)N2c1nc2ccccc2s1` (centres undefined), the GI50 in the assay on SW-620 is > 100 µM (inactive); in the assay on CAKI-1, > 100 µM (inactive); in the assay on MOLT-4, 46.9 µM (inactive); in the assay on M14, > 100 µM (inactive); with RPMI-8226, > 100 µM (inactive); with Hs-578T it was > 100 µM (inactive). Further, the GI50 with SNB-19, with MDA-MB-435, in the assay with RXF 393, in the assay with 786-0, in the assay with UO-31 and in the assay with TK-10 was > 100 µM (inactive) throughout. Moreover, the GI50 with NCI/ADR-RES, in the assay on MDA-N, in the assay on NCI-H522, in the assay with NCI-H23, with KM12 and in the assay with U-251 was > 100 µM (inactive) throughout. The GI50 with IGROV-1 was > 100 µM (inactive).

For `CC(C)c1ccc(C(O)(C(=O)O)c2ccc(C(C)C)cc2)cc1`, the GI50 was 61.8 µM (inactive) in the assay with SW-620; 45.8 µM (inactive) with CAKI-1; 48.8 µM (inactive) with MOLT-4; 63.5 µM (inactive) in the assay with M14; 24.8 µM (inactive) in the assay with RPMI-8226; 26.3 µM (inactive) with Hs-578T. Besides, the GI50 with SNB-19 is 45 µM (inactive); with MDA-MB-435, 95.7 µM (inactive); with RXF 393 it was 61.9 µM (inactive); in the assay with 786-0 it was 51.2 µM (inactive); in the assay on UO-31 it was 35.3 µM (inactive); in the assay on TK-10, 79.3 µM (inactive). Moreover, the GI50 in the assay with NCI/ADR-RES is 73.5 µM (inactive); in the assay with MDA-N, 70 µM (inactive); in the assay on NCI-H522 it was 34 µM (inactive); in the assay on NCI-H23, 42.1 µM (inactive); in the assay on KM12, 39.6 µM (inactive); in the assay on U-251, 18.2 µM (inactive). Also, in the assay with IGROV-1, the GI50 was 55.7 µM (inactive).

`CCOC(=O)C(C(=O)OCC)=C1NC2(c3ccccc3Nc3ccc(C)cc32)C(C(=O)OC)S1` (centres undefined): the GI50 with SW-620 was 48.6 µM (inactive); with CAKI-1, 8.69 µM (inactive); in the assay with MOLT-4, 5.58 µM (inactive); with M14, 27.6 µM (inactive); in the assay with RPMI-8226, 8.93 µM (inactive); with Hs-578T, 10.3 µM (inactive). The GI50 in the assay on SNB-19 was 55.3 µM (inactive); in the assay with MDA-MB-435 it was 30.5 µM (inactive); with RXF 393, 7.18 µM (inactive); in the assay with 786-0, 22.9 µM (inactive); in the assay on UO-31, 16.5 µM (inactive); with TK-10, 46.9 µM (inactive). Also, the GI50 in the assay with NCI/ADR-RES was 17.5 µM (inactive); in the assay with MDA-N it was 32.9 µM (inactive); in the assay with NCI-H522, 13.6 µM (inactive); with NCI-H23, 25.5 µM (inactive); with KM12 it was 14.2 µM (inactive); with U-251 it was 23.7 µM (inactive). Moreover, the GI50 in the assay with IGROV-1 was 18.4 µM (inactive).

Consider `CC12c3c4cccc3Oc3cc(N)cc(c31)Oc1cc(N)cc(c12)O4`, for which the GI50 in the assay on SW-620 is 3.48 µM (inactive); with CAKI-1, 9.86 µM (inactive); in the assay with MOLT-4 it was 5.13 µM (inactive); with M14 it was 4.55 µM (inactive); in the assay with RPMI-8226 it was 5.93 µM (inactive); in the assay with Hs-578T, 6.18 µM (inactive). The GI50 is 7.14 µM (inactive) in the assay with SNB-19; 1.24 µM (inactive) with MDA-MB-435; 0.408 µM (active) in the assay on RXF 393; 2.56 µM (inactive) in the assay with 786-0; 17.7 µM (inactive) in the assay on UO-31; 10 µM (inactive) with TK-10. Besides, the GI50 in the assay with NCI/ADR-RES was 0.953 µM (active); in the assay with MDA-N, 1.31 µM (inactive); in the assay on NCI-H522, 2.24 µM (inactive); in the assay on NCI-H23 it was 8.43 µM (inactive); in the assay with KM12, 4.26 µM (inactive); in the assay on U-251, 6.93 µM (inactive). Also, the GI50 in the assay with IGROV-1 is 3.44 µM (inactive).

Turning to `Cc1cccc2c(O)c3c(O)cc(O)cc3nc12`, the GI50 with SW-620, in the assay with CAKI-1, in the assay with MOLT-4, with M14, with RPMI-8226 and in the assay with Hs-578T was > 10 µM (inactive) each time. Besides, the GI50 in the assay with SNB-19, in the assay with MDA-MB-435, in the assay on RXF 393, in the assay on 786-0, with UO-31 and in the assay on TK-10 was > 10 µM (inactive) in each case. Also, the GI50 in the assay with NCI/ADR-RES, in the assay on MDA-N, with NCI-H522, in the assay on NCI-H23, in the assay on KM12 and in the assay with U-251 was > 10 µM (inactive) throughout. Further, the GI50 in the assay with IGROV-1 is > 10 µM (inactive).

On to `CC(=O)OC1CCC2(C)C(=CCC3C4CCC5(OC6CC(C)CN(C(C)=O)C6C5C)C(C)=C4C(=O)C32)C1` (centres undefined), for which the GI50 in the assay with SW-620 was 66.8 µM (inactive); in the assay with CAKI-1, 19.6 µM (inactive); with MOLT-4, 5.53 µM (inactive); with M14, 12.7 µM (inactive); in the assay with RPMI-8226, 14.6 µM (inactive); with Hs-578T, 16 µM (inactive). The GI50 in the assay with SNB-19 is 13.7 µM (inactive); in the assay on MDA-MB-435 it was 15.3 µM (inactive); in the assay with RXF 393 it was 16.6 µM (inactive); in the assay with 786-0, 28.1 µM (inactive); in the assay with UO-31 it was 31.9 µM (inactive); in the assay on TK-10 it was 24.3 µM (inactive). Besides, the GI50 was 18 µM (inactive) in the assay with NCI/ADR-RES; 23.6 µM (inactive) in the assay on MDA-N; 14.9 µM (inactive) in the assay with NCI-H522; 15 µM (inactive) with NCI-H23; 16.7 µM (inactive) in the assay on KM12; 16.2 µM (inactive) in the assay with U-251. In addition, the GI50 in the assay with IGROV-1 was 14.4 µM (inactive).

Regarding `Cc1c(/N=N/c2ccc([N+](=O)[O-])cc2)nc2scc(-c3ccccc3)n12`, the GI50 in the assay with SW-620 is > 80.2 µM (inactive); with CAKI-1, > 73.3 µM (inactive); with MOLT-4, 19.6 µM (inactive); in the assay with M14 it was > 100 µM (inactive); in the assay on RPMI-8226 it was 67.1 µM (inactive); with Hs-578T, > 78.7 µM (inactive). Further, the GI50 in the assay with SNB-19 was > 100 µM (inactive); in the assay on MDA-MB-435 it was > 100 µM (inactive); with RXF 393 it was 99.5 µM (inactive); in the assay with 786-0, > 100 µM (inactive); in the assay with UO-31, 58.7 µM (inactive); in the assay on TK-10 it was > 74.6 µM (inactive). The GI50 in the assay on NCI/ADR-RES was 73.1 µM (inactive); with MDA-N it was > 100 µM (inactive); in the assay on NCI-H522, 46.5 µM (inactive); with NCI-H23 it was 90.8 µM (inactive); with KM12, 53.5 µM (inactive); in the assay on U-251, > 100 µM (inactive). The GI50 in the assay with IGROV-1 is > 84.1 µM (inactive).

As for `O=C(Cc1nc2ccc([N+](=O)[O-])cc2nc1O)C(=O)Nc1ccccc1[N+](=O)[O-]`, the GI50 with SW-620, with CAKI-1, in the assay on MOLT-4, in the assay on M14, in the assay on M19-MEL and in the assay on SNB-19 was > 100 µM (inactive) each time. Besides, the GI50 is > 100 µM (inactive) in the assay on RXF 393; > 100 µM (inactive) in the assay on 786-0; > 100 µM (inactive) with UO-31; > 100 µM (inactive) in the assay on TK-10; 20.3 µM (inactive) in the assay with NCI-H522; > 100 µM (inactive) in the assay with NCI-H23. The GI50 in the assay on KM12 was 86.3 µM (inactive); in the assay on IGROV-1 it was > 100 µM (inactive).
